Measurements reported in PMC11369081, “Molecular mechanism of prolactin-releasing peptide recognition and signaling via its G protein-coupled receptor” (Cell Discovery, 2024).
Peptide text beside a SMILES is read from it.

How the values were obtained:
Type in all cases: cell-based
PrRPR Y120A = target: T1, PrRPR Y120A (Homo sapiens, UniProt P49683, Y120A); test: BRET2 Gq dissociation, Y120A; conditions: Y120A (2.64), Gq-coupling, AD293 cells; mean ± S.E.M., n = 3; P <0.0001 vs WT; read-out: BRET2 pEC50 (converted)
T1 construct: expressed in transfected cells; host or cells: AD293 cells
T1 sequence (P49683 whole entry Y120A): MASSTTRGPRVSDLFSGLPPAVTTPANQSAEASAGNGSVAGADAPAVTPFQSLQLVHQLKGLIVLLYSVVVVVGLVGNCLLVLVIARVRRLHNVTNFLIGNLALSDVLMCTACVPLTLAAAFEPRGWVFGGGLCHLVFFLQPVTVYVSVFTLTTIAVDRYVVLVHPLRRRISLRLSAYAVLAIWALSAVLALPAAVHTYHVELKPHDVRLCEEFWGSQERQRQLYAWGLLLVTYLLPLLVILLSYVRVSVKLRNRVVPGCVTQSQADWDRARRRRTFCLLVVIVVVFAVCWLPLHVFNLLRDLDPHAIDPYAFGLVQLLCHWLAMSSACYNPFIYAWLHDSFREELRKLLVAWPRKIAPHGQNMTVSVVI
Experimental: (§1) AD293 cells (Agilent) were propagated in Dulbecco’s Modified Eagle Medium (DMEM, Thermo Fisher Scientific), enriched with 10% fetal bovine serum (FBS, Thermo Fisher Scientific), and maintained at 37 °C in a 5% CO2 environment. Cells were then seeded in 6-well dishes at a density of 130,000–150,000 cells per mL and allowed to incubate overnight. On the next day, cells were transfected with plasmids at a 1:1:1:1 ratio for receptor:Gα-RLuc8:Gβ:Gγ-GFP2[52]. PEI MAX 40 K (BIOHUB) was utilized to form complex with the plasmids at a ratio of 3 µL PEI per µg of plasmids, in OptiMEM (Gibco-Thermo Fisher Scientific) at a concentration of 10 ng plasmids per µL OptiMEM. After 24 h of incubation, the culture was harvested by centrifugation with PBS. The cell suspension was then allocated into a white 384-well plate at a volume of 30 µL per well, followed by the addition of 10 µL of freshly prepared 50 µM coelenterazine 400a (Yeasen). […] Plates were subsequently read in a BioTek Synergy H1 microplate reader (BioTek) equipped with 395 nm (RLuc8-coelenterazine 400a) and 510 nm (GFP2) emission filters. BRET2 ratios were calculated as the ratio of the GFP2 emission to RLuc8 emission. […]
(§2) Supplementary Fig. S4 | Effects of mutations in the ligand-binding pocket and G protein intereface of Gq coupled PrRPR by BRET2 assay. […] BRET2 assay signals were measured after stimulation with PrRP20. […]

PrRPR W127A = target: T2, PrRPR W127A (Homo sapiens, UniProt P49683, W127A); test: BRET2 Gq dissociation, W127A; conditions: W127A (23.50), Gq-coupling, AD293 cells; mean ± S.E.M., n = 3; P <0.0001 vs WT; read-out: BRET2 pEC50 (converted)
T2 construct: expressed in transfected cells; host or cells: AD293 cells
T2 sequence (P49683 whole entry W127A): as the sequence (P49683 whole entry Y120A) above, with A120Y, W127A counted along it
Experimental: as §1, §2

PrRPR P142A [1] = target: T3, PrRPR P142A (Homo sapiens, UniProt P49683, P142A); test: BRET2 Gq dissociation, P142A; conditions: P142A (3.33), Gq-coupling, AD293 cells; mean ± S.E.M., n = 3; P <0.0001 vs WT; read-out: BRET2 pEC50 (converted)
T3 construct: expressed in transfected cells; host or cells: AD293 cells
T3 sequence (P49683 whole entry P142A): as the sequence (P49683 whole entry Y120A) above, with A120Y, P142A counted along it
Experimental: as §1, §2

PrRPR E213A = target: T4, PrRPR E213A (Homo sapiens, UniProt P49683, E213A); test: BRET2 Gq dissociation, E213A; conditions: E213A (45.52), Gq-coupling, AD293 cells; mean ± S.E.M., n = 3; P <0.0001 vs WT; read-out: BRET2 pEC50 (converted)
T4 construct: expressed in transfected cells; host or cells: AD293 cells
T4 sequence (P49683 whole entry E213A): as the sequence (P49683 whole entry Y120A) above, with A120Y, E213A counted along it
Experimental: as §1, §2

PrRPR H295A [2] = target: T5, PrRPR H295A (Homo sapiens, UniProt P49683, H295A); test: BRET2 Gq dissociation, H295A; conditions: H295A (6.52), Gq-coupling, AD293 cells; mean ± S.E.M., n = 3; P <0.0001 vs WT; read-out: BRET2 pEC50 (converted)
T5 construct: Flag; expressed in transfected cells; host or cells: AD293 cells
T5 sequence (P49683 whole entry H295A): as the sequence (P49683 whole entry Y120A) above, with A120Y, H295A counted along it
Experimental: as §1, §2

PrRPR F313A [3] = target: T6, PrRPR F313A (Homo sapiens, UniProt P49683, F313A); test: BRET2 Gq dissociation, F313A; conditions: F313A (7.31), Gq-coupling, AD293 cells; mean ± S.E.M., n = 3; P 0.0012 vs WT; read-out: BRET2 pEC50 (converted)
T6 construct: Flag; expressed in transfected cells; host or cells: AD293 cells
T6 sequence (P49683 whole entry F313A): as the sequence (P49683 whole entry Y120A) above, with A120Y, F313A counted along it
Experimental: as §1, §2

PrRPR C113A = target: T7, PrRPR C113A (Homo sapiens, UniProt P49683, C113A); test: BRET2 Gi dissociation, C113A; conditions: C113A (2.57), Gi-coupling, AD293 cells; mean ± S.E.M., n = 3; P 0.0008 vs WT; read-out: BRET2 pEC50 (converted)
T7 construct: expressed in transfected cells; host or cells: AD293 cells
T7 sequence (P49683 whole entry C113A): as the sequence (P49683 whole entry Y120A) above, with C113A, A120Y counted along it
Experimental: (§3) AD293 cells (Agilent) were propagated in Dulbecco’s Modified Eagle Medium (DMEM, Thermo Fisher Scientific), enriched with 10% fetal bovine serum (FBS, Thermo Fisher Scientific), and maintained at 37 °C in a 5% CO2 environment. Cells were then seeded in 6-well dishes at a density of 130,000–150,000 cells per mL and allowed to incubate overnight. On the next day, cells were transfected with plasmids at a 1:1:1:1 ratio for receptor:Gα-RLuc8:Gβ:Gγ-GFP2[52]. PEI MAX 40 K (BIOHUB) was utilized to form complex with the plasmids at a ratio of 3 µL PEI per µg of plasmids, in OptiMEM (Gibco-Thermo Fisher Scientific) at a concentration of 10 ng plasmids per µL OptiMEM. After 24 h of incubation, the culture was harvested by centrifugation with PBS. The cell suspension was then allocated into a white 384-well plate at a volume of 30 µL per well, followed by the addition of 10 µL of freshly prepared 50 µM coelenterazine 400a (Yeasen). Following a 15-min equilibration period, cells were treated with 10 µL of ligand for an additional 5 min. Plates were subsequently read in a BioTek Synergy H1 microplate reader (BioTek) equipped with 395 nm (RLuc8-coelenterazine 400a) and 510 nm (GFP2) emission filters. BRET2 ratios were calculated as the ratio of the GFP2 emission to RLuc8 emission. Data were normalized to the baseline response of the ligand. […]

PrRPR T117A = target: T8, PrRPR T117A (Homo sapiens, UniProt P49683, T117A); test: BRET2 Gi dissociation, T117A; conditions: T117A (2.61), Gi-coupling, AD293 cells; mean ± S.E.M., n = 3; P <0.0001 vs WT; read-out: BRET2 pEC50 (converted)
T8 construct: expressed in transfected cells; host or cells: AD293 cells
T8 sequence (P49683 whole entry T117A): as the sequence (P49683 whole entry Y120A) above, with T117A, A120Y counted along it
Experimental: as §3

PrRPR P142A [4] = target: T3, PrRPR P142A; test: BRET2 Gi dissociation, P142A; conditions: P142A (3.33), Gi-coupling, AD293 cells; mean ± S.E.M., n = 3; P 0.0035 vs WT; read-out: BRET2 pEC50 (converted)
Experimental: as §3

PrRPR H295A [5] = target: T5, PrRPR H295A; test: BRET2 Gi dissociation, H295A; conditions: H295A (6.52), Gi-coupling, AD293 cells; mean ± S.E.M., n = 3; P 0.8032 vs WT; read-out: BRET2 pEC50 (converted)
Experimental: as §3

PrRPR D302A = target: T9, PrRPR D302A (Homo sapiens, UniProt P49683, D302A); test: BRET2 Gi dissociation, D302A; conditions: D302A (6.59), Gi-coupling, AD293 cells; mean ± S.E.M., n = 3; P <0.0001 vs WT; read-out: BRET2 pEC50 (converted)
T9 construct: Flag; expressed in transfected cells; host or cells: AD293 cells
T9 sequence (P49683 whole entry D302A): as the sequence (P49683 whole entry Y120A) above, with A120Y, D302A counted along it
Experimental: as §3

PrRPR F313A [6] = target: T6, PrRPR F313A; test: BRET2 Gi dissociation, F313A; conditions: F313A (7.31), Gi-coupling, AD293 cells; mean ± S.E.M., n = 3; P <0.0001 vs WT; read-out: BRET2 pEC50 (converted)
Experimental: as §3

Which results are given for `CC[C@H](C)[C@H](NC(=O)CNC(=O)[C@H](CCCNC(=N)N)NC(=O)[C@H](CO)NC(=O)[C@H](C)NC(=O)[C@H](Cc1ccc(O)cc1)NC(=O)[C@H](Cc1c[nH]c2ccccc12)NC(=O)[C@H](C)NC(=O)[C@@H]1CCCN1C(=O)[C@H](CC(N)=O)NC(=O)[C@@H](NC(=O)[C@H](CC(=O)O)NC(=O)[C@@H]1CCCN1C(=O)[C@@H](N)[C@@H](C)O)[C@@H](C)CC)C(=O)N[C@@H](CCCNC(=N)N)C(=O)N1CCC[C@H]1C(=O)N[C@H](C(=O)NCC(=O)N[C@@H](CCCNC(=N)N)C(=O)N[C@@H](Cc1ccccc1)C(N)=O)C(C)C` [PrRP20] (H-TPDINPAWYASRGIRPVGRF-NH2)?
EC50 (PrRPR Y120A): 191 nM; EC50 (PrRPR W127A): 240 nM; EC50 (PrRPR P142A [1]): 4.79 nM; EC50 (PrRPR E213A): 282 nM; EC50 (PrRPR H295A [2]): 4.79 nM; EC50 (PrRPR F313A [3]): 3.39 nM; EC50 (PrRPR C113A): 7.08 nM; EC50 (PrRPR T117A): 3470 nM; EC50 (PrRPR P142A [4]): 6.46 nM; EC50 (PrRPR H295A [5]): 3.02 nM; EC50 (PrRPR D302A): 1120 nM; EC50 (PrRPR F313A [6]): 14.8 nM
